Data from patent US8846096B2, “Nanoparticles and methods of use” (Creighton University, priority 2008, dated 2014).

Legend:
[1] = Nanoparticle characterization (size, zeta potential, drug loading, entrapment efficiency); type: physicochemical; details: per drug, HPLC
Procedure: Briefly, in a typical procedure, a solution of ethylene oxide/propylene oxide block copolymer (Poloxamer-127; 2% [w/v] in double distilled water (ddH2O 10 mL); BASF, Mt. Olive, N.J.) was homogenized with ART drug powder (1 mg of each) in poly-lactic-co-glycolic acid) (PLGA) polymer (molecular weight 110,000-139,000 Daltons (100 mg) in 10 mL methylene chloride) using a probe sonicator (21W for 6 min) (Sonicator XL, Misonix, Farmingdale, N.Y.). The water-in-oil emulsion thus formed was further emulsified into 30 mL of 0.25% (w/v) aqueous solution of polyvinyl alcohol (PVA) as an emulsifier by using sonication as described above for 5 minutes to fowl multiple water-in-oil-in-water emulsion. […] Additionally, 6-hydroxycoumarin (a fluorescent dye; 1% w/v) was added to the polymer solution and one milligram of each ART were fabricated to make fluorescent nanoparticles for flow cytometry. In all formulation procedures, the emulsion was stirred for approximately 18 hours at room temperature to evaporate the organic solvent, methylene chloride, followed by ultracentrifugation (15,000 G for 45 minutes at 4° C., Optima LE-80K, Beckman, Palo Alto, Calif.), rinsed twice with ddH2O to remove PVA, and unentrapped drugs, and then lyophilized (Labconco, Freezone 4.5 at −52° C. and 5.62 torr) for 24 hours to obtain a dry powder.
Nanoparticle characterization: Nanoparticles were evaluated for size by […] as well as scanning electron microscopy (SEM) and surface charge by using a zeta potential analyzer (ZetaPlus, Brookhaven Instruments, Holtsville, N.Y.). For SEM, a sample of nanoparticles was suspended in water (0.2 mg/ml) and an aliquot of suspended particles were placed onto a tip and sputter coated with 2% w/v uranyl acetate, dried, and then visualized by using a JEOL-40A (JEOL Ltd, Sheboygan, Wis.) scanning electron microscope. Additionally, one milligram of formed particles was dissolved in one milliliter methylene chloride in glass tubes and evaporated overnight in quadruplicate. High pressure liquid chromatography (HPLC) mobile phase (200 μL) reconstituted the tubes. The tubes were centrifuged (11,000 rpm, 10 minutes, 4° C.) and aliquots were injected into the HPLC equipment to determine ART drug loading and entrapment efficiency.
Standards were analyzed in triplicate and averaged.

[2] = system: PBMCs; test: ART release from nanoparticles / free drug: intracellular drug levels in PBMCs by HPLC
Procedure: High pressure liquid chromatography (HPLC): HPLC was performed using a previously reported method (Weller et al., J. Chromatogr. B Analyt. Technol. Biomed. Life Sci., 2007, 848(2):369-73). Briefly, the equipment included a pump (LC-10ATvp), system controller (SIL-10ADvp); degasser unit (DGU-14A), refrigerated auto-sampler (SIL-10ADvp); and a UV-Vis detector (SPD-10ADvp) and a column heater (set at 35° C.) (all from Shimadzu Corporation, Columbia, Md.). Samples were run through a C18 pre-column and a Jupiter C18 reverse-phase [150×3.9 mm (I.D.)] with […] particle size packing (Phenomenex, Torrance, Calif.). The mobile phase was 25 mM KHPO4 (pH 4.9) and acetonitrile (40:60). The mobile phase was filtered and degassed prior to use. Flow rate was set at 0.9 mL/min and the detector was set at 212 nm. […] Peak area from the samples and standards were integrated using EZ-Start chromatography software (Shimadzu) on a Dell computer. Injection volume was 20 μL and all samples were analyzed in duplicate and averaged. Standards were analyzed in triplicate and averaged.
Human monocyte isolation and cultivation: Human PBMCs were obtained from whole blood collection of HIV-1, -2 and hepatitis B seronegative donor and purified using CPT Vacutainer tubes (BD and Co., Sparks, Md.) according to the manufacturer instructions. […] (1×10^6 cells/mL) were cultured in DMEM supplemented with 10% heat-inactivated pooled human serum, 1% glutamine, 1% penicillin-streptomycin, and 10 µg/mL ciprofloxacin (Sigma Chemical Co) then filter sterilized. The PBMCs were used within 2 hours after blood collection. Media was one-half exchanged with fresh media every 2-3 days. These cells were used for ART drug release experiments from nanoparticles as determined by HPLC. Human PBMCs at 5×10^6 were cultured in DMEM supplemented with 10% heat-inactivated pooled human serum, 1% glutamine, 1% penicillin-streptomycin, and 10 µg/mL ciprofloxacin (Sigma Chemical Co), and 1000 U/mL highly purified recombinant human macrophage colony stimulating factor (MCSF; R&D Systems, Inc; Minneapolis, Minn.) for seven days. Media was one-half exchanged very 2-3 days. Monocyte-derived macrophages (MDM) were used for TEM and fluorescent imaging.
ART Release from Nanoparticles: Antiretroviral nanoparticles (100 μg) were added to PBMC cell cultures. Flasks containing PBMCs and ART nanoparticles were placed in a 37° C., 5% CO2 incubator. At the appointed time, media in the flask was placed in a sterile 15 mL conical tube and centrifuged (400×G, 24° C. for 10 minutes). Cells (250 μL) were removed from the tube and put into a microfuge tube for HPLC analysis. […] Cell samples were placed in microfuge tubes, 250 μL of 100% methanol was added to lyse the cells then the cells were frozen (−20° C.) until assayed for ART drugs using HPLC. When HPLC was performed, microfuge tubes were thawed, centrifuged at 15,000 rpm at 4 C for 10 minutes and an aliquot of supernatant was placed into autosampler vials with glass insert. Free drugs (25 μg/mL of each ART drug) was dissolved in HPLC-grade ethanol, incubated with the PBMCs and cells were removed at 2, 4, 8, 24, and 48 hours, lysed with methanol, centrifuged, and assayed by HPLC as controls of these experiments.

[3] = in vivo; details: for MRT: MRT (mean residence time within the serum)
Procedure: (§1) The particles were weighed, reconstituted with PBS and 500 μg was injected intraperitoneally (IP) into male BALB/c mice. At specific times, (free: 0.08, 0.167, 0.25, 0.33, 1, 2 and 3 days; antiretroviral nanoparticles: 0.167, 0.33, 1, 2, 4, 7, 14, 21, 28, and 35 days) mice (n=3/time point) were euthanized and selected organs and serum were harvested for antiretroviral drug levels. Results are presented as mean±SEM.
(§2) The nanoparticle powder was weighed and 500 μg was dissolved in phosphate-buffered saline (PBS) and injected intraperitoneally into each BALB/c male mice (25-28 g). […] At specified times points, mice (n=3-4) were euthanized using a CO2 chamber and organs (spleen, liver, kidney, brain, testes) and blood (100-150 μL) were removed from each of the mice. Blood was allowed to clot, centrifuged (1000×G) and serum was harvested. The organs were harvested and immediately placed on ice. At weekly intervals, an aliquot of the organ tissue was weighed and 500 μL of 100% methanol was added to tissue and serum samples. The tissue was homogenized using a pellet homogenizer, equilibrated at 4° C. for 30 minutes, and then centrifuged (11,400 RPM×15 minutes at 4° C.). An aliquot of the supernatant (20 μL/injection) was added to autosampler vials with glass inserts. […] Duplicate samples from tissues and serum were assayed and standards were assayed in triplicate. The organ/serum samples were compared to the standard curve (45-1000 ng/ml) that was performed on that day using peak area and EZ-Chrom software (Shimadzu, Corp.).
Data is presented as mean±SEM where appropriate. Serum concentration-time curves were used to determine pharmacokinetic parameters. Elimination rate constant was determined using nonlinear regression of the terminal phase of the serum concentration-time curve. Apparent volume of distribution, total body clearance, mean residence time and area under the serum concentration-time curve to the last concentration obtained (AUC0-last) were determined by non-compartmental modeling.

[4] = Drug levels in organs and serum of mice after a single intraperitoneal dose; details: male, BALB/c, mouse, liver, ip, 500 μg
Procedure: as §1
as §2, with “The organ/serum samples were compared to the standard curve (45-1000 ng/ml) that was performed on that day using peak area and EZ-Chrom software (Shimadzu, Corp.).” left out

[5] = male, BALB/c, mouse, in vivo, ip, 500 ug
[6] = male, BALB/c, mouse, in vivo, ip, 500 ug, Elimination half-life, drug given as PLGA nanoparticles, averaging
[7] = male, BALB/c, mouse, in vivo, ip, 500 ug, Free ART
[8] = male, BALB/c, mouse, in vivo, ip, 500 ug, NP ART
[9] = male, BALB/c, mouse, in vivo, ip, 500 ug, T1/2 (elimination half-life), Free ART
[10] = male, BALB/c, mouse, in vivo, ip, 500 ug, T1/2 (elimination half-life), NP ART
[11] = PLGA NPs 500 μg IP, mice, listed as E

## CC(C)c1nc(CN(C)C(=O)N[C@H](C(=O)N[C@@H](Cc2ccccc2)C[C@H](O)[C@H](Cc2ccccc2)NC(=O)OCc2cncs2)C(C)C)cs1 [RTV, ritonavir]
[1]
  Antiretroviral drug loading of the nanoparticles: 4.9%
[2]; human, 25 μg/mL
  Time of intracellular peak concentration, free drug: 8 h
  Time to elimination of free drug from PBMCs: ≤ 48 h
[2]; human, 100 μg
  Intracellular peak level, drug given as nanoparticles: 2.5+1.1 μg
  Time of intracellular peak concentration, drug given as nanoparticles: 96 h
  Time of intracellular peak level, drug given as nanoparticles: 4 days
[3]; [5]
  Vd (volume of distribution), Free ART: 9.7 ± 4.4 L/kg
  Vd (volume of distribution), NP ART: 549.9 ± 360 L/kg
[3]; [6]
  half-life: > 1680 h
[3]; [7]
  MRT: 4.8 h
[3]; [8]
  MRT: 775 h
[3]; [9]
  half-life: 9.6 ± 2.8 h
[3]; [10]
  half-life: 5500 h
[3]; mouse, in vivo, ip, 500 ug
  AUC (area under the serum concentration-time curve), NP ART: R: 7020.5 ± 11428.7 ng-day/ml

## Cc1cccc(C)c1OCC(=O)N[C@@H](Cc1ccccc1)[C@@H](O)C[C@H](Cc1ccccc1)NC(=O)[C@H](C(C)C)N1CCCNC1=O [LPV, lopinavir]
[1]
  Antiretroviral drug loading of the nanoparticles: 5.2%
[2]; human, 25 μg/mL
  Time of intracellular peak concentration, free drug: 8 h
  Time to elimination of free drug from PBMCs: ≤ 48 h
[2]; human, 100 μg
  Intracellular peak level, drug given as nanoparticles: 4.1+2.0 μg
  Time of intracellular peak concentration, drug given as nanoparticles: 96 h
  Time of intracellular peak level, drug given as nanoparticles: 4 days
[3]; [5]
  Vd (volume of distribution), Free ART: 41.6 ± 31.7 L/kg
  Vd (volume of distribution), NP ART: 118.6 ± 165.9 L/kg
[3]; [6]
  half-life: > 1680 h
[3]; [7]
  MRT: 14.4 h
[3]; [8]
  MRT: 5490 h
[3]; [9]
  half-life: 15.1 ± 6.4 h
[3]; [10]
  half-life: 645 h
[3]; mouse, in vivo, ip, 500 ug
  AUC (area under the serum concentration-time curve), NP ART: L: 3329.8 ± 1785.3 ng-day/ml

## O=C1Nc2ccc(Cl)cc2[C@@](C#CC2CC2)(C(F)(F)F)O1 [EFV, efavirenz]
[1]
  Antiretroviral drug loading of the nanoparticles: 10.8%
  Entrapment efficiency: 86%
[2]; PLGA NPs (100 μg) incubated with PBMCs
  Intracellular peak level, drug given as nanoparticles: 10.6+2.7 μg
[2]; PLGA NPs incubated with PBMCs
  Time of intracellular peak concentration, drug given as nanoparticles: 24 h
[2]; PLGA NPs incubated with PBMCs (summary of Example 1)
  Time of intracellular peak level, drug given as nanoparticles: 4 days
[2]; free drug 25 μg/mL in ethanol, PBMCs, at 8 hours
  Intracellular peak concentration, free drug: 3.1+0.02 μg
[2]; free drug, PBMCs
  Time of intracellular peak concentration, free drug: 8 h
[2]; human, 25 μg/mL
  Time to elimination of free drug from PBMCs: ≤ 48 h
[4]
  concentration at 28 day: 1020 ± 440 ng/g
[3]; PLGA NPs 500 μg IP single dose, mice
  Peak serum level, drug given as PLGA nanoparticles: 853.2 ± 64.1 ng/mL
[3]; PLGA NPs 500 μg IP, mice
  AUC (area under the serum concentration-time curve), NP ART: E: 5716.9 ± 3177.7 ng-day/ml
  ClT (total body clearance), NPs: 2.85 ± 2.12 mL/min/kg
  Time of peak serum level, drug given as PLGA nanoparticles: 0.25 h
  Vd (volume of distribution), NP ART: 11.38 ± 10.72 L/kg
[3]; [11]
  MRT (mean residence time within the serum), NP ART: E: 10.3 ± 4.24 days
  Vd (volume of distribution), NP ART: E: 11.4 ± 10.7 L/kg
[3]; free drugs 500 μg IP single dose, mice, 4 hours post-injection
  Peak serum level, free drug: 3.5 ± 1.9 µg/L
[3]; free drugs 500 μg IP, mice
  AUC (area under the serum concentration-time curve, AUC0-last), Free ART: 646 ± 640 ng·days/mL
  Time of peak serum level, free drug: 4 h
  Vd (volume of distribution), Free ART: 39.3 ± 26.6 L/kg
[3]; free drugs 500 μg IP, mice, serum, listed as E
  T1/2 (elimination half-life), Free ART: E: 11.76 ± 2.8 hrs
[3]; [5]
  AUC (area under the serum concentration-time curve, AUC0-last), Free ART: E: 645. 9 ± 640.2 ng-day/ml
[3]; male, BALB/c, mouse, serum, ip, 500 ug, Free ART, free drugs 500 μg IP, mice
  MRT: 13.7 h
[3]; male, BALB/c, mouse, serum, ip, 500 ug, NP ART, PLGA NPs 500 μg IP, mice
  MRT: 248 h
[3]; male, BALB/c, mouse, serum, ip, 500 ug, T1/2 (elimination half-life), Free ART, free drugs 500 μg IP, mice
  half-life: 11.8 ± 2.8 h
[3]; male, BALB/c, mouse, serum, ip, 500 ug, T1/2 (elimination half-life), NP ART, PLGA NPs 500 μg IP, mice
  half-life: 35.5 h
